Reference: ChEMBL document CHEMBL5316338, “Discovery of Novel PTP1B Inhibitors with Once-Weekly Therapeutic Potential for Type 2 Diabetes: Design, Synthesis, and In Vitro and In Vivo Investigations of BimBH3 Peptide Analogues” (J Med Chem, 2023)
Active and inactive are the calls of the source. The rule behind the calls is not given here. Square brackets hold non-standard residues; d marks the D form. Peptide text beside a SMILES is read from it. * marks the point of attachment. ξ: configuration not given here. C22 diacid = O=C(O)CCCCCCCCCCCCCCCCCCCCC(=O)*; C20 diacid = O=C(O)CCCCCCCCCCCCCCCCCCC(=O)*; Stearoyl = CCCCCCCCCCCCCCCCCC(=O)*; ξR = N=C(N)NCCCC(N)C(=O)O

How the values were obtained:
[1] = molecular target: T1, Tyrosine-protein phosphatase non-receptor type 1 (Homo sapiens) (UniProt P18031); assay: Inhibition of N-terminal His tagged recombinant human PTP1B expressed in Escherichia coli using pNPP as substrate assessed as substrate hydrolysis at 40 umol/L relative to control; conditions: dose 40.0 µmol/L
T1 sequence (whole entry): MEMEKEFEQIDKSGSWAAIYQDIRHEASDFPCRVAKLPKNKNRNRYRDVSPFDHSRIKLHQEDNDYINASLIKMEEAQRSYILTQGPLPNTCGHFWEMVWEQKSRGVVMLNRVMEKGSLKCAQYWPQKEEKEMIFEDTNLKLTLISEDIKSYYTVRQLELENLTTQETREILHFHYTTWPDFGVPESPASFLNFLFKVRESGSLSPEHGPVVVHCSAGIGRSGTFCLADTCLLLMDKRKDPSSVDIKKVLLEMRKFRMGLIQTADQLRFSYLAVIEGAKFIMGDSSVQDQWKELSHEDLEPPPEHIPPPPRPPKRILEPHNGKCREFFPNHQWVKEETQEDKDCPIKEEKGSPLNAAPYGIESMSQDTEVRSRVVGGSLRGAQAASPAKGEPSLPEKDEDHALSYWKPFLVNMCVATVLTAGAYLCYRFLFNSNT

[2] = Stability of compound assessed as Pepsin (unknown origin) mediated compound degradation by measuring fold change of half-life by HPLC analysis relative to BimBH312-mer peptide; format: ADME; conditions: human
Mus musculus [3] = assay: Antidiabetic activity against C57BL/Ks db/db mouse assessed as redcution in fasting blood glucose level at 1 umol/kg, sc administered once a week and measured on day 8 by glucometer analysis (reference value: 27.7 +/- 3.7 […]); format: functional; conditions: dose 1 µmol/kg, time 8 day
chymotrypsin [4] = molecular target: chymotrypsin (Homo sapiens, UniProt P17538+P40313+Q6GPI1+Q99895); assay: Stability of compound assessed as chymotrypsin (unknown origin) mediated compound degradation by measuring half-life by RP-HPLC analysis; format: ADME, protein assay
Mus musculus [5] = assay: Antidiabetic activity against sc dosed C57BL/Ks db/db mouse assessed as reduction in glucagon level at 1 umol/kg by ELISA analysis; format: functional, organism-based; conditions: dose 1.0 µmol/kg
Mus musculus [6] = assay: Antidiabetic activity against C57BL/Ks db/db mouse assessed as redcution in fasting blood glucose level at 1 umol/kg, sc administered once a week and measured on day 22 by glucometer analysis (reference value: 27.4 +/- 1.8 […]); format: functional; conditions: dose 1 µmol/kg, time 22 day
Chymotrypsin [7] = molecular target: Chymotrypsin (Homo sapiens, UniProt Q99895+P17538+P40313+Q6GPI1); assay: Stability of compound assessed as chymotrypsin (unknown origin) mediated compound degradation by measuring fold change of half-life by RP-HPLC analysis relative to BimBH312-mer peptide; format: ADME, protein assay
Mus musculus [8] = assay: Antidiabetic activity against over-night fasted C57BL/ks db/db mouse assessed as suppression of increased blood glucose concentration at 1 uM/kg, sc pretreated with compound for 4 weeks followed by insulin stimulation and measured for 90 mins by insulin tolerance test; format: functional, organism-based; conditions: time 40410.0 min
Mus musculus [9] = assay: Antidiabetic activity against C57BL/Ks db/db mouse assessed as redcution in fasting blood glucose level at 1 umol/kg, sc administered once a week and measured on day 26 by glucometer analysis (reference value: 31.4 +/- 2.2 […]); format: functional; conditions: dose 1 µmol/kg, time 26 day
Carboxypeptidase A1 = molecular target: T2, Carboxypeptidase A1 (Homo sapiens, UniProt P15085); assay: Stability of compound assessed as carboxypeptidase A (unknown origin) mediated compound degradation by measuring fold change of half-life by RP-HPLC analysis relative to BimBH312-mer peptide; format: ADME
T2 sequence (P15085 whole entry): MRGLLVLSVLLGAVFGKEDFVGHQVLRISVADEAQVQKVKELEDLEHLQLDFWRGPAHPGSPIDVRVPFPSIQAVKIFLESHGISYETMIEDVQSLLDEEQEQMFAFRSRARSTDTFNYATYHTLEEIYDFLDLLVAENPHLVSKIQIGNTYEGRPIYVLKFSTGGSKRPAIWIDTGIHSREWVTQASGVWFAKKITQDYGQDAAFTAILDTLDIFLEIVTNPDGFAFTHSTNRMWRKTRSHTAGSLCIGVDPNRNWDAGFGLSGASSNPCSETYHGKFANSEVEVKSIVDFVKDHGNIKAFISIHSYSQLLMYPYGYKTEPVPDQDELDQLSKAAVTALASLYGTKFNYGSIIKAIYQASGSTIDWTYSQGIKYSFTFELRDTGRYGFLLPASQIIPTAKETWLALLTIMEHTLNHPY

[10] = molecular target: T3, Tyrosine-protein phosphatase non-receptor type 1 (Homo sapiens, UniProt P18031); assay: Inhibition of N-terminal His tagged recombinant human PTP1B expressed in Escherichia coli using pNPP as substrate assessed as substrate hydrolysis
T3 sequence (P18031 whole entry): T1 sequence (whole entry)

Mus musculus [11] = assay: Antidiabetic activity against C57BL/Ks db/db mouse assessed as redcution in fasting blood glucose level at 1 umol/kg administered subcutaneously and measured immediately by glucometer analysis (reference value: 19.0 +/- 2.7 […]); format: functional; conditions: dose 1 µmol/kg; route sc
Mus musculus [12] = assay: Antidiabetic activity against over-night fasted C57BL/ks db/db mouse assessed as suppression of increased blood glucose concentration at 1 uM/kg, sc pretreated with compound for 4 weeks followed by oral glucose stimulation and measured upto 120 mins by oral glucose tolerance test; format: functional, organism-based; conditions: time 40440.0 min
Homo sapiens = organism: Homo sapiens; assay: Selectivity index, ratio of IC50 for inhibition of recombinant human TC-PTP (1 to 314 residues) expressed in baculovirus infected insect cells to IC50 for inhibition of N-terminal His-tagged recombinant human PTP1B expressed in Escherichia coli
[13] = molecular target: T4, Tyrosine-protein phosphatase non-receptor type 2 (Homo sapiens, UniProt P17706); assay: Inhibition of recombinant human TC-PTP (1 to 314 residues) expressed in baculovirus infected insect cells using pNPP as substrate assessed as substrate hydrolysis; parameters: species or system Insect cell
T4 sequence (P17706 whole entry): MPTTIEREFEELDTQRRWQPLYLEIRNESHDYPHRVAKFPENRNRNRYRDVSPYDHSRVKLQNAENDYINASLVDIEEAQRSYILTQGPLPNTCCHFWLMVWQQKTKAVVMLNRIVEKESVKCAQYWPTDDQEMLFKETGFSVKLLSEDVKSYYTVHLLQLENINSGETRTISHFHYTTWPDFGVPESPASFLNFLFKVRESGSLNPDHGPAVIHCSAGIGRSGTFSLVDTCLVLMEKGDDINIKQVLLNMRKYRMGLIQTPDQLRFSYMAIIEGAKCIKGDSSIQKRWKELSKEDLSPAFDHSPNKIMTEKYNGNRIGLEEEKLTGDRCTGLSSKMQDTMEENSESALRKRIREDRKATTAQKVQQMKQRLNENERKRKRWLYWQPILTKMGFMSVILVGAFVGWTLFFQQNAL

Proteinase K = assay: Stability of compound assessed as Proteinase K (unknown origin) mediated compound degradation by measuring half-life by HPLC analysis; format: ADME
[14] = molecular target: T5, Tyrosine-protein phosphatase non-receptor type 2 (Homo sapiens) (UniProt P17706); assay: Inhibition of recombinant human TC-PTP (1 to 314 residues) expressed in baculovirus infected insect cells using pNPP as substrate assessed as substrate hydrolysis at 50 umol/L relative to control; conditions: Insect cell, dose 50.0 µmol/L
T5 sequence (whole entry): T4 sequence (P17706 whole entry)

Mus musculus [15] = assay: Antidiabetic activity against C57BL/Ks db/db mouse assessed as redcution in fasting blood glucose level at 1 umol/kg, sc administered once a week and measured on day 28 by glucometer analysis (reference value: 32.4 +/- 1.1 […]); format: functional; conditions: dose 1 µmol/kg, time 28 day
Mus musculus [16] = assay: Antidiabetic activity against sc dosed C57BL/Ks db/db mouse assessed as reduction in C-peptide level at 1 umol/kg by ELISA analysis; format: functional, organism-based; conditions: dose 1.0 µmol/kg
Pepsin = assay: Stability of compound assessed as Pepsin (unknown origin) mediated compound degradation by measuring half-life by HPLC analysis; format: ADME; conditions: human
Mus musculus [17] = assay: Antidiabetic activity against C57BL/Ks db/db mouse assessed as redcution in fasting blood glucose level at 1 umol/kg, sc administered once a week and measured on day 15 by glucometer analysis (reference value: 27.3 +/- 2.4 […]); format: functional; conditions: dose 1 µmol/kg, time 15 day
Mus musculus [18] = assay: Antidiabetic activity against C57BL/Ks db/db mouse assessed as redcution in fasting blood glucose level at 1 umol/kg, sc administered once a week and measured on day 24 by glucometer analysis (reference value: 30.2 +/- 3.2 […]); format: functional; conditions: dose 1 µmol/kg, time 24 day
Mus musculus [19] = assay: Antidiabetic activity against sc dosed C57BL/Ks db/db mouse assessed as reduction in serum insulin level at 1 umol/kg by ELISA analysis; format: functional, organism-based; conditions: dose 1.0 µmol/kg
[20] = Stability of compound assessed as Proteinase K (unknown origin) mediated compound degradation by measuring fold change of half-life by HPLC analysis relative to BimBH312-mer peptide; format: ADME
carboxypeptidase A = molecular target: T6, carboxypeptidase A (Homo sapiens, UniProt P15085); assay: Stability of compound assessed as carboxypeptidase A (unknown origin) mediated compound degradation by measuring half-life by RP-HPLC analysis; format: ADME
T6 sequence (P15085 whole entry): T2 sequence (P15085 whole entry)

inhibition [1] | fold change (FC) [2] | half-life (chymotrypsin [4]) | fold change (FC) (Chymotrypsin [7]) | fold change (FC) (Carboxypeptidase A1) | IC50 [10] | IC50 [13] | half-life (Proteinase K) | half-life (Pepsin) | Structure (SMILES) | Fasting blood glucose level (Mus musculus [3]) | Activity (Mus musculus [5]) | Activity (Mus musculus [8]) | Fasting blood glucose level (Mus musculus [9]) | Fasting blood glucose level (Mus musculus [11]) | Activity (Mus musculus [12]) | Ratio IC50 (Homo sapiens) | Fasting blood glucose level (Mus musculus [15]) | Activity (Mus musculus [16]) | Fasting blood glucose (Mus musculus [17]) | Fasting blood glucose level (Mus musculus [18]) | other results
> 50% | 64.1 | 6.81 h | 158.4 | 40 | 200 nM | > 50000 nM | 0.51 h | 1.41 h | CC[C@H](C)[C@H](NC(=O)CCCCCCCCCCCCCCCCCCCCC(=O)O)C(=O)N[C@@H](C)C(=O)N[C@@H](CCC(N)=O)C(=O)N[C@@H](CCC(=O)O)C(=O)N[C@@H](CC(C)C)C(=O)N[C@@H](CCCNC(=N)N)C(=O)NC(CCCNC(=N)N)C(=O)N[C@H](C(=O)NCC(=O)N[C@@H](CC(=O)O)C(=O)N[C@@H](CCC(=O)O)C(=O)N[C@@H](Cc1ccccc1)C(=O)O)[C@@H](C)CC (stereo partly drawn) ({C22 diacid}-IAQELR[ξR]IGDEF-OH) | 11.5 mmol/L | Active | Active | 19.7 mmol/L | 19.7 mmol/L | Active | > 250 | 17 mmol/L | Active | 11 mmol/L | 16 mmol/L | Fasting blood glucose level (Mus musculus [6]): 11.4 mmol/L; inhibition [14]: < 50%; Activity (Mus musculus [19]): Active; fold change (FC) [20]: 10.2; half-life (carboxypeptidase A): 1.28 h
> 50% | 69.1 | 0.5 h | 11.6 | 7.8 | 443 nM | > 50000 nM | 0.9 h | 1.52 h | CC[C@H](C)[C@H](NC(=O)CCCCCCCCCCCCCCCCCCC(=O)O)C(=O)N[C@@H](C)C(=O)N[C@@H](CCC(N)=O)C(=O)N[C@@H](CCC(=O)O)C(=O)N[C@@H](CC(C)C)C(=O)N[C@@H](CCCNC(=N)N)C(=O)NC(CCCNC(=N)N)C(=O)N[C@H](C(=O)NCC(=O)N[C@@H](CC(=O)O)C(=O)N[C@@H](CCC(=O)O)C(=O)N[C@@H](Cc1ccccc1)C(=O)O)[C@@H](C)CC (stereo partly drawn) ({C20 diacid}-IAQELR[ξR]IGDEF-OH) | 11.3 mmol/L | Active | Active | 19 mmol/L | 18.6 mmol/L | Active | > 113 | 19.2 mmol/L | Active | 9.7 mmol/L | 16 mmol/L | inhibition [14]: < 50%; Activity (Mus musculus [19]): Active; fold change (FC) [20]: 18; half-life (carboxypeptidase A): 0.25 h
> 50% | 334.5 | 7.33 h | 170.5 | 549.1 | 120 nM | 13600 nM | 1.43 h | 7.36 h | CCCCCCCCCCCCCCCCCC(=O)N[C@H](C(=O)N[C@@H](C)C(=O)N[C@@H](CCC(N)=O)C(=O)N[C@@H](CCC(=O)O)C(=O)N[C@@H](CC(C)C)C(=O)N[C@@H](CCCNC(=N)N)C(=O)NC(CCCNC(=N)N)C(=O)N[C@H](C(=O)NCC(=O)N[C@@H](CC(=O)O)C(=O)N[C@@H](CCC(=O)O)C(=O)N[C@@H](Cc1ccccc1)C(=O)O)[C@@H](C)CC)[C@@H](C)CC (stereo partly drawn) (Stearoyl-IAQELR[ξR]IGDEF-OH) | 11.8 mmol/L | Active | Active | 16.3 mmol/L | 20.4 mmol/L | Active | 113 | 19.8 mmol/L | Active | 12.8 mmol/L | 18.1 mmol/L | Fasting blood glucose level (Mus musculus [6]): 15.6 mmol/L; Activity (Mus musculus [19]): Active; fold change (FC) [20]: 28.6; half-life (carboxypeptidase A): 17.6 h
